Data published in patent US8084453B2, “Alkyl substituted indoloquinoxalines” (Oxypharma AB, priority 2004, dated 2011).

What was measured:
EAE model = conditions: prior art patents; cited from earlier work
[1] = tested on: mAB/LPS-induced arthritic mice; experiment: mAb/LPS-induced arthritis in mice, hind paw thickness; type: in vivo; conditions: for Mean group values of hind paw thickness, day 0: day 0 (base-line); for Mean group values of hind paw thickness, day 0 / Mean group values of hind paw thickness, day 7 / Mean group values of hind paw thickness, day 9 / Mean group values of hind paw thickness, day 11: once daily (day 0-5) repeated subcutaneous administration; for Hind paw thickness vs vehicle control (corn oil): comparison with vehicle control (corn oil)
Excerpt: Collagen-induced arthritis (CIA) in mice is widely used as an experimental model for rheumatoid arthritis (RA) in humans. CIA is mediated by autoantibodies which bind to a particular region of type II collagen, such as CB11 (CNBr-digested fragment of type II collagen).
Antibody-mediated CIA can be induced by iv injection of a combination of 4 different monoclonal antibodies (Arthrogen-CIA® mAb) generated by Arthrogen-CIA® mouse B-hybridoma cell lines.
Three of the mAbs recognize autoantigenic epitopes clustered within an 84 amino acid residue fragment, LyC2 (the smallest arthritogenic fragment of type II collagen) of CB11 and the fourth mAb reacts with LyC1 (FIG. 1). Importantly, all 4 mAbs recognize the conserved epitopes shared by various species of type II collagen and crossreact with homologous and heterologous type II collagen.
A cocktail of 4 monoclonal antibodies are used. These arthritogenic mAbs alone or in combination with bacterial LPS can induce severe arthritis within days instead of weeks (classic CIA model).
(A) A cocktail of 4 monoclonal antibodies to type II collagen (2 mg) is injected intravenously on day 0 followed by an intraperitoneal injection of LPS (50 μg) on day 3. Arthritis will develop on day 4 and reach its peak on day 7-8. The therapeutic effects of test compounds will be determined on day 7. […] formation and bone degradation will be more significant on day 14 and day 21 (not shown). (B) Authentic collagen-induced arthritis.
Measurement of arthritis. Hind paw thickness, left and right of each animal (9 animals in each group) was measured in mm on study days 0 (base-line), 7, 9 and 11 using a Mitutoyo Electronic Digital Caliper. […] Dexamethasone is a cortisone which suppresses inflammation and normal immune response, and is used systemically and locally to treat inflammatory disorders. Patients are for safety reasons treated with short courses of cortisones to bring the inflammation under control in the window between starting the DMARD or DMARD combination and the likely response time.
FIG. 3. Mean group values (mm) of hind paw thickness measured throughout the entire 11-day observation period in the mAB/LPS-induced arthritic mice following once daily (day 0-5) repeated subcutaneous administration of B-220 analogues, Dexamethasone (positive control) or corn oil (negative control).

[2] = tested on: collagen-induced arthritis (CIA) model; conditions: prior art patents; cited from earlier work

Structure (SMILES) | treating MS in the EAE model (EAE model) | Mean group values of hind paw thickness, day 0 [1] [mm] | Mean group values of hind paw thickness, day 7 [1] [mm] | Mean group values of hind paw thickness, day 9 [1] [mm] | Mean group values of hind paw thickness, day 11 [1] [mm] | treating RA in the collagen-induced arthritis (CIA) model [2] | melting point [°C] | Hind paw thickness vs vehicle control (corn oil) [1]
Cc1cc2nc3c4ccccc4n(CCN(C)C)c3nc2cc1C [Compound B-220, 2,3-dimethyl-6-(N,N-dimethylaminoethyl)-6H-indolo(2,3-b)quinoxaline, reference compound] | promising compound | 2.2 | 3.1 | 3.0 | 2.8 | promising compound |  | 
Cc1cc2nc3c4cc(F)ccc4n(CC(N)=O)c3nc2cc1C [Compound C, 2,3-Dimethyl-9-fluoro-indolo[2,3-b]quinoxaline-6-yl-acetamide] |  | 2.2 | 3.1 | 3.0 | 2.8 |  | 316 to 319 | 
Cc1cc2nc3c4cc(Cl)ccc4n(CC(=O)NCCN(C)C)c3nc2cc1C [Compound E, 9-Chloro-2,3-dimethyl-6-(N,N-dimethylaminoethylamino-2-oxoethyl)-6H-indolo-[2,3-b]quinoxaline] |  | 2.2 | 2.3 | 2.3 | 2.3 |  |  | highly significant lower
Cc1cc2nc3c4cc(F)ccc4n(CC(=O)NCCN)c3nc2cc1C [Compound H, 2,3-Dimethyl-6-(aminoethylamino-2-oxoethyl)-9-fluoro-6H-indolo[2,3-b]quinoxaline] |  | 2.2 | 2.5 | 2.5 | 2.5 |  | 269 to 271 | highly significant lower
Cc1cc2nc3c4cc(Cl)ccc4n(CC(=O)O)c3nc2cc1C [Compound K, 2,3-Dimethyl-9-chloro-indolo[2,3-b]quinoxaline-6-yl acetic acid] |  |  |  |  |  |  | 331 to 332 | 
Cc1cc2nc3c4cc(F)ccc4n(CC(=O)O)c3nc2cc1C [Compound L, 2,3-dimethyl-9-fluoro-indolo[2,3-b]quinoxaline-6-yl-acetic acid] |  |  |  |  |  |  | 317 to 318 | 
C[C@@H]1C[C@H]2[C@@H]3CCC4=CC(=O)C=C[C@]4(C)[C@@]3(F)[C@@H](O)C[C@]2(C)[C@@]1(O)C(=O)CO [Dexamethasone, reference compound] |  | 2.2 | 2.3 | 2.3 | 2.3 |  |  | 
